Test results as given in the supplement of paper PMC10307832.

Key:
Experiment in all cases: relative viability (nuclei count vs DMSO), 5 days (fraction); higher = more cells survive
[1] = tested on: BEN
In short: (§1)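 Cells from lung cancer lines were seeded into 1536-well plates and, one day later, dosed by pin tool. Treatments were either a single drug or a fixed dose of an anchor drug with five library-drug doses (not always all listed) in √10 steps. After 5 days, nuclei were stained in a one-step fixation (final 0.05% Triton X-100, 1% formaldehyde, 1 ug/ml Hoechst) and counted on 4× images, and relative viability is the treated-to-vehicle nuclei ratio, as the median of duplicate plates.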

[2] = tested on: NCI-H2087
In short: as §1

[3] = tested on: ABC-1
In short: as §1

[4] = tested on: NCI-H1915
In short: as §1

[5] = tested on: NCI-H650
In short: as §1

[6] = tested on: NCI-H441
In short: as §1

[7] = tested on: NCI-H727
In short: as §1

[8] = tested on: 201T
In short: as §1

[9] = tested on: NCI-H596
In short: as §1

[10] = tested on: LCLC-97TM1
In short: as §1

[11] = tested on: NCI-H460
In short: as §1

[12] = tested on: A-427
In short: as §1

[13] = tested on: LC-2-ad
In short: as §1

[14] = tested on: NCI-H1944
In short: as §1

[15] = tested on: PC-3 [JPC-3]
In short: as §1

[16] = tested on: CAL-12T
In short: as §1

[17] = tested on: NCI-H1651
In short: as §1

[18] = tested on: H3255
In short: as §1

## O=c1cc(-c2cccc3c2Sc2ccccc2S3)oc(N2CCOCC2)c1 + NC(=O)Nc1cc(-c2cccc(F)c2)sc1C(=O)N[C@H]1CCCNC1 [AZD7762] (partner 0.2 µM)
[1]; first compound 0.08 µM
  relative viability: 0.694
[1]; first compound 0.253 µM
  relative viability: 0.656
[1]; first compound 0.8 µM
  relative viability: 0.647
[1]; first compound 2.53 µM
  relative viability: 0.618
[1]; first compound 8 µM
  relative viability: 0.734
[2]; first compound 0.08 µM
  relative viability: 1.25
[2]; first compound 0.253 µM
  relative viability: 1.46
[2]; first compound 0.8 µM
  relative viability: 1.07
[2]; first compound 2.53 µM
  relative viability: 1.31
[2]; first compound 8 µM
  relative viability: 1.25
[3]; first compound 0.08 µM
  relative viability: 0.738
[3]; first compound 0.253 µM
  relative viability: 0.7
[3]; first compound 0.8 µM
  relative viability: 0.714
[3]; first compound 2.53 µM
  relative viability: 1
[3]; first compound 8 µM
  relative viability: 0.875
[4]; first compound 0.08 µM
  relative viability: 0.716
[4]; first compound 0.253 µM
  relative viability: 0.761
[4]; first compound 0.8 µM
  relative viability: 0.795
[4]; first compound 2.53 µM
  relative viability: 0.681
[4]; first compound 8 µM
  relative viability: 0.716
[5]; first compound 0.08 µM
  relative viability: 0.886
[5]; first compound 0.253 µM
  relative viability: 1.09
[5]; first compound 0.8 µM
  relative viability: 1.03
[5]; first compound 2.53 µM
  relative viability: 0.668
[5]; first compound 8 µM
  relative viability: 1.01
[6]; first compound 0.08 µM
  relative viability: 0.965
[6]; first compound 0.253 µM
  relative viability: 1.24
[6]; first compound 0.8 µM
  relative viability: 1.18
[6]; first compound 2.53 µM
  relative viability: 0.941
[6]; first compound 8 µM
  relative viability: 1.21
[7]; first compound 0.08 µM
  relative viability: 0.501
[7]; first compound 0.253 µM
  relative viability: 0.655
[7]; first compound 2.53 µM
  relative viability: 0.413
[7]; first compound 8 µM
  relative viability: 0.739
[8]; first compound 0.08 µM
  relative viability: 0.598
[8]; first compound 0.253 µM
  relative viability: 0.686
[8]; first compound 0.8 µM
  relative viability: 0.741
[8]; first compound 2.53 µM
  relative viability: 0.655
[8]; first compound 8 µM
  relative viability: 0.546
[9]; first compound 0.08 µM
  relative viability: 1.04
[9]; first compound 0.253 µM
  relative viability: 1.1
[9]; first compound 0.8 µM
  relative viability: 1.15
[9]; first compound 2.53 µM
  relative viability: 1
[9]; first compound 8 µM
  relative viability: 1.22
[10]; first compound 0.08 µM
  relative viability: 0.303
[10]; first compound 0.253 µM
  relative viability: 0.191
[10]; first compound 0.8 µM
  relative viability: 0.265
[10]; first compound 2.53 µM
  relative viability: 0.114
[10]; first compound 8 µM
  relative viability: 0.345
[11]; first compound 0.08 µM
  relative viability: 0.742
[11]; first compound 0.253 µM
  relative viability: 0.695
[11]; first compound 0.8 µM
  relative viability: 0.669
[11]; first compound 2.53 µM
  relative viability: 0.431
[11]; first compound 8 µM
  relative viability: 0.685
[12]; first compound 0.08 µM
  relative viability: 0.715
[12]; first compound 0.253 µM
  relative viability: 0.842
[12]; first compound 0.8 µM
  relative viability: 0.791
[12]; first compound 2.53 µM
  relative viability: 0.41
[12]; first compound 8 µM
  relative viability: 0.616
[13]; first compound 0.08 µM
  relative viability: 0.805
[13]; first compound 0.253 µM
  relative viability: 0.944
[13]; first compound 0.8 µM
  relative viability: 0.853
[13]; first compound 2.53 µM
  relative viability: 0.741
[13]; first compound 8 µM
  relative viability: 0.797
[14]; first compound 0.08 µM
  relative viability: 0.54
[14]; first compound 0.253 µM
  relative viability: 0.456
[14]; first compound 0.8 µM
  relative viability: 0.48
[14]; first compound 2.53 µM
  relative viability: 0.55
[14]; first compound 8 µM
  relative viability: 0.51
[15]; first compound 0.08 µM
  relative viability: 0.721
[15]; first compound 0.253 µM
  relative viability: 0.745
[15]; first compound 0.8 µM
  relative viability: 0.758
[15]; first compound 2.53 µM
  relative viability: 0.766
[15]; first compound 8 µM
  relative viability: 0.728
[16]; first compound 0.08 µM
  relative viability: 0.585
[16]; first compound 0.253 µM
  relative viability: 0.555
[16]; first compound 0.8 µM
  relative viability: 0.601
[16]; first compound 2.53 µM
  relative viability: 0.626
[16]; first compound 8 µM
  relative viability: 0.642
[17]; first compound 0.08 µM
  relative viability: 0.452
[17]; first compound 0.253 µM
  relative viability: 0.538
[17]; first compound 0.8 µM
  relative viability: 0.44
[17]; first compound 2.53 µM
  relative viability: 0.389
[17]; first compound 8 µM
  relative viability: 0.425
[18]; first compound 0.08 µM
  relative viability: 0.878
[18]; first compound 0.253 µM
  relative viability: 0.996
[18]; first compound 0.8 µM
  relative viability: 0.758
[18]; first compound 2.53 µM
  relative viability: 0.882
[18]; first compound 8 µM
  relative viability: 0.901

## COc1nc(C)cnc1NS(=O)(=O)c1cccnc1-c1ccc(-c2nnco2)cc1 [Zibotentan] + NC(=O)Nc1cc(-c2cccc(F)c2)sc1C(=O)N[C@H]1CCCNC1 [AZD7762] (partner 0.2 µM)
[1]; first compound 0.08 µM
  relative viability: 0.7
[1]; first compound 0.253 µM
  relative viability: 0.588
[1]; first compound 0.8 µM
  relative viability: 0.682
[1]; first compound 2.53 µM
  relative viability: 0.677
[2]; first compound 0.08 µM
  relative viability: 1.28
[2]; first compound 0.253 µM
  relative viability: 1.22
[2]; first compound 0.8 µM
  relative viability: 1.29
[2]; first compound 2.53 µM
  relative viability: 1.29
[3]; first compound 0.08 µM
  relative viability: 0.711
[3]; first compound 0.253 µM
  relative viability: 0.86
[3]; first compound 0.8 µM
  relative viability: 0.765
[3]; first compound 2.53 µM
  relative viability: 0.843
[4]; first compound 0.08 µM
  relative viability: 0.836
[4]; first compound 0.253 µM
  relative viability: 0.649
[4]; first compound 0.8 µM
  relative viability: 0.597
[4]; first compound 2.53 µM
  relative viability: 0.683
[5]; first compound 0.08 µM
  relative viability: 1.09
[5]; first compound 0.253 µM
  relative viability: 0.892
[5]; first compound 0.8 µM
  relative viability: 0.943
[5]; first compound 2.53 µM
  relative viability: 1.11
[6]; first compound 0.08 µM
  relative viability: 1.3
[6]; first compound 0.253 µM
  relative viability: 1.08
[6]; first compound 0.8 µM
  relative viability: 0.994
[6]; first compound 2.53 µM
  relative viability: 1.12
[7]; first compound 0.08 µM
  relative viability: 0.575
[7]; first compound 0.253 µM
  relative viability: 0.572
[7]; first compound 0.8 µM
  relative viability: 0.497
[7]; first compound 2.53 µM
  relative viability: 0.296
[8]; first compound 0.08 µM
  relative viability: 0.644
[8]; first compound 0.253 µM
  relative viability: 0.604
[8]; first compound 0.8 µM
  relative viability: 0.624
[8]; first compound 2.53 µM
  relative viability: 0.569
[9]; first compound 0.08 µM
  relative viability: 1.13
[9]; first compound 0.253 µM
  relative viability: 1.01
[9]; first compound 0.8 µM
  relative viability: 1.06
[9]; first compound 2.53 µM
  relative viability: 1.22
[10]; first compound 0.08 µM
  relative viability: 0.433
[10]; first compound 0.253 µM
  relative viability: 0.165
[10]; first compound 0.8 µM
  relative viability: 0.12
[10]; first compound 2.53 µM
  relative viability: 0.253
[11]; first compound 0.08 µM
  relative viability: 0.784
[11]; first compound 0.253 µM
  relative viability: 0.539
[11]; first compound 0.8 µM
  relative viability: 0.251
[11]; first compound 2.53 µM
  relative viability: 0.749
[12]; first compound 0.08 µM
  relative viability: 0.905
[12]; first compound 0.253 µM
  relative viability: 0.666
[12]; first compound 0.8 µM
  relative viability: 0.655
[12]; first compound 2.53 µM
  relative viability: 0.834
[13]; first compound 0.08 µM
  relative viability: 0.785
[13]; first compound 0.253 µM
  relative viability: 0.781
[13]; first compound 0.8 µM
  relative viability: 0.791
[13]; first compound 2.53 µM
  relative viability: 0.905
[14]; first compound 0.08 µM
  relative viability: 0.561
[14]; first compound 0.253 µM
  relative viability: 0.487
[14]; first compound 0.8 µM
  relative viability: 0.249
[14]; first compound 2.53 µM
  relative viability: 0.548
[15]; first compound 0.08 µM
  relative viability: 0.711
[15]; first compound 0.253 µM
  relative viability: 0.654
[15]; first compound 0.8 µM
  relative viability: 0.733
[15]; first compound 2.53 µM
  relative viability: 0.861
[16]; first compound 0.08 µM
  relative viability: 0.604
[16]; first compound 0.253 µM
  relative viability: 0.498
[16]; first compound 0.8 µM
  relative viability: 0.526
[16]; first compound 2.53 µM
  relative viability: 0.666
[17]; first compound 0.08 µM
  relative viability: 0.448
[17]; first compound 0.253 µM
  relative viability: 0.389
[17]; first compound 0.8 µM
  relative viability: 0.446
[17]; first compound 2.53 µM
  relative viability: 0.419
[18]; first compound 0.08 µM
  relative viability: 0.901
[18]; first compound 0.253 µM
  relative viability: 0.87
[18]; first compound 0.8 µM
  relative viability: 0.825
[18]; first compound 2.53 µM
  relative viability: 0.799
